We go through one compound from patent US10857160B2, “Oil-in-water nanoemulsion composition of clobetasol” (LABORATORIOS SALVAT, S.A., priority 2017, dated 2020).

The series deals with normotensive albino New Zealand rabbits. The series can be described thus: Study of effect on intraocular pressure (IOP). Format: in vivo, rabbit. As to conditions: intra-cameral administration, dexamethasone 0.1% (positive control). Here is the method: Control samples: • Positive control: dexamethasone 0.1%. • Negative control: 0.9% sodium chloride saline solution Material and Method • The laboratory animals used were normotensive albino New Zealand rabbits. The rabbits were adapted to periods of light/dark (12/12 hours) needed to adjust and maintain stable the diurnal cycle of the intraocular pressure (IOP). • Rabbits were distributed in different groups: the positive control group (positive control sample), the negative control group (negative control sample) and two test groups (two test samples). • The treatment involved the injection of dexamethasone into the anterior chamber, meanwhile for the rest of groups; each animal was topically instilled, in each eye with the control sample or the test composition 4 times a day for 15 days. • Measurement of IOP of the groups was performed twice a day. After the instillation in each animal, it was observed the possibility of adverse effects of the respective compound on the ocular surface. Results

For `C[C@@H]1C[C@H]2[C@@H]3CCC4=CC(=O)C=C[C@]4(C)[C@@]3(F)[C@@H](O)C[C@]2(C)[C@@]1(O)C(=O)CO` [dexamethasone], the “elevation of the intraocular pressure” value is “statistically significant elevation”.
